{"source": "ChEMBL document CHEMBL5653631", "about": "“A Potent and Selective ULK1 Inhibitor Suppresses Autophagy and Sensitizes Cancer Cells to Nutrient Stress” (iScience, 2018)", "key": {"[1]": {"biological_target": "Angiopoietin-1 receptor (Homo sapiens) (UniProt Q02763)", "sequence (Q02763 whole entry)": "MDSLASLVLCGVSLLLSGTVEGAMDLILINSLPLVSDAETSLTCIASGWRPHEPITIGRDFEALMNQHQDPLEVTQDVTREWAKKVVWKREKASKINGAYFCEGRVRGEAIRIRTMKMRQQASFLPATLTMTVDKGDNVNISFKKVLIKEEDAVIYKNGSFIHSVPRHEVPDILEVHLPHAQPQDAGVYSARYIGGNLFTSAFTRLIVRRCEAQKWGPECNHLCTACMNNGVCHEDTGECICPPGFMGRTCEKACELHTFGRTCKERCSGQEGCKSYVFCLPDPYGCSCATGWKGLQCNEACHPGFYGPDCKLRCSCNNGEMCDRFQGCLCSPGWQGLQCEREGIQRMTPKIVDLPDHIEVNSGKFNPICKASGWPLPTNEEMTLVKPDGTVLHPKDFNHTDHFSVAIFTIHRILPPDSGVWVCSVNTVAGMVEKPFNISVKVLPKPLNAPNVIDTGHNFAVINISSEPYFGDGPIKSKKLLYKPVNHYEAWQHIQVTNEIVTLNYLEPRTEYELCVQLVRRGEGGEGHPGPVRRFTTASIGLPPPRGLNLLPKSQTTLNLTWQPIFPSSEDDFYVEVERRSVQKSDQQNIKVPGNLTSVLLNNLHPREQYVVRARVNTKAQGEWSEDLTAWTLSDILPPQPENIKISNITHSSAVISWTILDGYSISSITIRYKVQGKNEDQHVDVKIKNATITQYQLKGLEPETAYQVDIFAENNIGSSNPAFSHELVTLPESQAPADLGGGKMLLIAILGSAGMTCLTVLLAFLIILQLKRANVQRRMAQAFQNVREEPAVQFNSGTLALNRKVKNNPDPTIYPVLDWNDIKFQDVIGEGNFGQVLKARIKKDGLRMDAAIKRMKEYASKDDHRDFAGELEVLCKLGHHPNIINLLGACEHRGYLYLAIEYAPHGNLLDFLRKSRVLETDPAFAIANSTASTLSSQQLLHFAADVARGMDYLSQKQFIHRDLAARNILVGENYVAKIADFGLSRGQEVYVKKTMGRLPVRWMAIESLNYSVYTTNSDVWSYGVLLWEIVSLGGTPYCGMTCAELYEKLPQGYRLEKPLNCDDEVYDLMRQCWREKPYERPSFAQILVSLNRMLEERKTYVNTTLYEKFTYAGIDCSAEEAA", "assay": "Inhibition of human recombinant Tie2 at 40 nM related to control ULK1"}, "[2]": {"biological_target": "Casein kinase II subunit alpha' (Homo sapiens) (UniProt P19784)", "sequence (P19784 whole entry, looked up)": "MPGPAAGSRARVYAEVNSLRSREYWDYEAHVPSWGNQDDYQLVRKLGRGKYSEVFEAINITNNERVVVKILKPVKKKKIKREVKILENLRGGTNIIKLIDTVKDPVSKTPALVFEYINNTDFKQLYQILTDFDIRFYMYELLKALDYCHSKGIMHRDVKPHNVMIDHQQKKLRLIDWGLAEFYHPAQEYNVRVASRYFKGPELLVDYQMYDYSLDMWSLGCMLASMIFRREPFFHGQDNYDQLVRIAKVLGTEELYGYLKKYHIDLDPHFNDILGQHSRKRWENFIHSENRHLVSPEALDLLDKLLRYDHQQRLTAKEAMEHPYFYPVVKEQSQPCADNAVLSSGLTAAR", "assay": "Inhibition of human recombinant CK2a2 at 40 nM related to control ULK1"}, "[3]": {"biological_target": "Ribosomal protein S6 kinase alpha-2 (Homo sapiens) (UniProt Q15349)", "sequence (Q15349 whole entry)": "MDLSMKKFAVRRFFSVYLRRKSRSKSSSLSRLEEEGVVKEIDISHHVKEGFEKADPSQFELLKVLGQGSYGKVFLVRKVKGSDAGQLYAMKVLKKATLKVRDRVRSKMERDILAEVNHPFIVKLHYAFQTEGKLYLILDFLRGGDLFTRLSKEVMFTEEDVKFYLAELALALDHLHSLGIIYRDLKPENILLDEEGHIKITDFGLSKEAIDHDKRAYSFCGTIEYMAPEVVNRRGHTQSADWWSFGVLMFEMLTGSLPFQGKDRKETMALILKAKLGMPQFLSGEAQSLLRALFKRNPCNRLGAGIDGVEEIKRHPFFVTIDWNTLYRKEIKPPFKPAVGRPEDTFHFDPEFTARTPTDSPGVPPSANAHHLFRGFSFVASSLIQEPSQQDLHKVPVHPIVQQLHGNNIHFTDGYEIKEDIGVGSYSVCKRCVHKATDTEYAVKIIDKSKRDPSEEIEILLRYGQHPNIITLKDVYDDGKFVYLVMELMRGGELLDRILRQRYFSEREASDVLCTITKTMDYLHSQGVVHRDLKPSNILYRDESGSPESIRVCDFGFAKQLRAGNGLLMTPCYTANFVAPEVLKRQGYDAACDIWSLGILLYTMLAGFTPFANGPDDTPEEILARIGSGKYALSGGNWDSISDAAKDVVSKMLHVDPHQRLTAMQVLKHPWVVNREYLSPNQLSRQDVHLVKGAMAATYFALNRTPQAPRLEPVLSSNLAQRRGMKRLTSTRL", "assay": "Inhibition of human recombinant RSK3 at 40 nM related to control ULK1"}, "[4]": {"biological_target": "T1, Protein kinase C zeta type (Homo sapiens) (UniProt Q05513)", "T1 sequence (whole entry)": "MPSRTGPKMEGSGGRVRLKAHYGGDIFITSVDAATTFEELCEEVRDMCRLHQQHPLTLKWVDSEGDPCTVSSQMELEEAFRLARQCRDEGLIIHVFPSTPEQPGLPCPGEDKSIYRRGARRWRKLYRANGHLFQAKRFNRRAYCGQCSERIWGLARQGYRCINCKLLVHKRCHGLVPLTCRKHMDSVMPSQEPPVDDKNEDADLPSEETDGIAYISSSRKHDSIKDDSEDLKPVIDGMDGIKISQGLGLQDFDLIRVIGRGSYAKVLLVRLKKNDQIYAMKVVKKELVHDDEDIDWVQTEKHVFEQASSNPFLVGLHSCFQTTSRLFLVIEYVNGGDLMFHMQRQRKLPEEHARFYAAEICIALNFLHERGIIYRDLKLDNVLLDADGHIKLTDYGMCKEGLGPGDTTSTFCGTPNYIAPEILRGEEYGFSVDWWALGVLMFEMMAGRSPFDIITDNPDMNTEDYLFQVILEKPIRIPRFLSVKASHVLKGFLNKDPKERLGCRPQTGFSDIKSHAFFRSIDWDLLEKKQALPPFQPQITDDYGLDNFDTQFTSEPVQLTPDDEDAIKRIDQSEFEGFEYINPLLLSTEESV", "assay": "Inhibition of human recombinant PKCz at 500 nM in presence of ATP by radiometric assay relative to control"}, "[5]": {"biological_target": "DNA-PK/Ku70/Ku85 (Homo sapiens) (UniProt P78527+P12956+P13010)", "assay": "Inhibition of human recombinant DNAPK at 500 nM related to control ULK1", "format": "protein-complex assay"}, "[6]": {"biological_target": "T2, Tyrosine-protein kinase JAK3 (Homo sapiens) (UniProt P52333)", "T2 sequence (whole entry)": "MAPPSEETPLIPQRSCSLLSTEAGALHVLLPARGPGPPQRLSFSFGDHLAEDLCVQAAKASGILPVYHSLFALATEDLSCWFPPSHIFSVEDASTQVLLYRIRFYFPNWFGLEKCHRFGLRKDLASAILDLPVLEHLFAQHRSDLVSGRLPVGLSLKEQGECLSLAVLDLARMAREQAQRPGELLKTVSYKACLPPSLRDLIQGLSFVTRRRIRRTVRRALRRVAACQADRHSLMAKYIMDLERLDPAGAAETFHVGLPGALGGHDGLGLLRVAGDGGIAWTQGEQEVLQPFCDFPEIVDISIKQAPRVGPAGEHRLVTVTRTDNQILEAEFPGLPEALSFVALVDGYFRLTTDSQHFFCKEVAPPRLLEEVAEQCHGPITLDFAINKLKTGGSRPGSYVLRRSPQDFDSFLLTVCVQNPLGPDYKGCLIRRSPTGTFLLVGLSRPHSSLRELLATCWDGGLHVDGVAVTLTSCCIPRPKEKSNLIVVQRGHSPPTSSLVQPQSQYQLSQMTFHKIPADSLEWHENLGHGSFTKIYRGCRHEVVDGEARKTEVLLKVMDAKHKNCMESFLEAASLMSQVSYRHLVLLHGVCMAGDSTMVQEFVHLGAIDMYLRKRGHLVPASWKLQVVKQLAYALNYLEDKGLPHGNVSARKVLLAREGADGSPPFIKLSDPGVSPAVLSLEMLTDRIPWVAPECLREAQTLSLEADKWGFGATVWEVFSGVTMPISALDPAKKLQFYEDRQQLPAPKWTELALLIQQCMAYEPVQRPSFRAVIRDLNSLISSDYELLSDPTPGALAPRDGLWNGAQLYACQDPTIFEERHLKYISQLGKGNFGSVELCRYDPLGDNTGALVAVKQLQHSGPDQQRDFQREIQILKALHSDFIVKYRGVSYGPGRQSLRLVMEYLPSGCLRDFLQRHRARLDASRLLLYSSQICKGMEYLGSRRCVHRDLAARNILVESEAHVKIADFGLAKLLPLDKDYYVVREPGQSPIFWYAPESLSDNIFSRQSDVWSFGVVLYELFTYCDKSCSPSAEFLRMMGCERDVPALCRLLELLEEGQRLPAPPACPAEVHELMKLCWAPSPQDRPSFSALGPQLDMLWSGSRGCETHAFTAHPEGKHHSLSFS", "assay": "Inhibition of human recombinant JAK3 at 500 nM related to control ULK1"}, "[7]": {"biological_target": "Proto-oncogene tyrosine-protein kinase ROS (Homo sapiens) (UniProt P08922)", "sequence (P08922 whole entry)": "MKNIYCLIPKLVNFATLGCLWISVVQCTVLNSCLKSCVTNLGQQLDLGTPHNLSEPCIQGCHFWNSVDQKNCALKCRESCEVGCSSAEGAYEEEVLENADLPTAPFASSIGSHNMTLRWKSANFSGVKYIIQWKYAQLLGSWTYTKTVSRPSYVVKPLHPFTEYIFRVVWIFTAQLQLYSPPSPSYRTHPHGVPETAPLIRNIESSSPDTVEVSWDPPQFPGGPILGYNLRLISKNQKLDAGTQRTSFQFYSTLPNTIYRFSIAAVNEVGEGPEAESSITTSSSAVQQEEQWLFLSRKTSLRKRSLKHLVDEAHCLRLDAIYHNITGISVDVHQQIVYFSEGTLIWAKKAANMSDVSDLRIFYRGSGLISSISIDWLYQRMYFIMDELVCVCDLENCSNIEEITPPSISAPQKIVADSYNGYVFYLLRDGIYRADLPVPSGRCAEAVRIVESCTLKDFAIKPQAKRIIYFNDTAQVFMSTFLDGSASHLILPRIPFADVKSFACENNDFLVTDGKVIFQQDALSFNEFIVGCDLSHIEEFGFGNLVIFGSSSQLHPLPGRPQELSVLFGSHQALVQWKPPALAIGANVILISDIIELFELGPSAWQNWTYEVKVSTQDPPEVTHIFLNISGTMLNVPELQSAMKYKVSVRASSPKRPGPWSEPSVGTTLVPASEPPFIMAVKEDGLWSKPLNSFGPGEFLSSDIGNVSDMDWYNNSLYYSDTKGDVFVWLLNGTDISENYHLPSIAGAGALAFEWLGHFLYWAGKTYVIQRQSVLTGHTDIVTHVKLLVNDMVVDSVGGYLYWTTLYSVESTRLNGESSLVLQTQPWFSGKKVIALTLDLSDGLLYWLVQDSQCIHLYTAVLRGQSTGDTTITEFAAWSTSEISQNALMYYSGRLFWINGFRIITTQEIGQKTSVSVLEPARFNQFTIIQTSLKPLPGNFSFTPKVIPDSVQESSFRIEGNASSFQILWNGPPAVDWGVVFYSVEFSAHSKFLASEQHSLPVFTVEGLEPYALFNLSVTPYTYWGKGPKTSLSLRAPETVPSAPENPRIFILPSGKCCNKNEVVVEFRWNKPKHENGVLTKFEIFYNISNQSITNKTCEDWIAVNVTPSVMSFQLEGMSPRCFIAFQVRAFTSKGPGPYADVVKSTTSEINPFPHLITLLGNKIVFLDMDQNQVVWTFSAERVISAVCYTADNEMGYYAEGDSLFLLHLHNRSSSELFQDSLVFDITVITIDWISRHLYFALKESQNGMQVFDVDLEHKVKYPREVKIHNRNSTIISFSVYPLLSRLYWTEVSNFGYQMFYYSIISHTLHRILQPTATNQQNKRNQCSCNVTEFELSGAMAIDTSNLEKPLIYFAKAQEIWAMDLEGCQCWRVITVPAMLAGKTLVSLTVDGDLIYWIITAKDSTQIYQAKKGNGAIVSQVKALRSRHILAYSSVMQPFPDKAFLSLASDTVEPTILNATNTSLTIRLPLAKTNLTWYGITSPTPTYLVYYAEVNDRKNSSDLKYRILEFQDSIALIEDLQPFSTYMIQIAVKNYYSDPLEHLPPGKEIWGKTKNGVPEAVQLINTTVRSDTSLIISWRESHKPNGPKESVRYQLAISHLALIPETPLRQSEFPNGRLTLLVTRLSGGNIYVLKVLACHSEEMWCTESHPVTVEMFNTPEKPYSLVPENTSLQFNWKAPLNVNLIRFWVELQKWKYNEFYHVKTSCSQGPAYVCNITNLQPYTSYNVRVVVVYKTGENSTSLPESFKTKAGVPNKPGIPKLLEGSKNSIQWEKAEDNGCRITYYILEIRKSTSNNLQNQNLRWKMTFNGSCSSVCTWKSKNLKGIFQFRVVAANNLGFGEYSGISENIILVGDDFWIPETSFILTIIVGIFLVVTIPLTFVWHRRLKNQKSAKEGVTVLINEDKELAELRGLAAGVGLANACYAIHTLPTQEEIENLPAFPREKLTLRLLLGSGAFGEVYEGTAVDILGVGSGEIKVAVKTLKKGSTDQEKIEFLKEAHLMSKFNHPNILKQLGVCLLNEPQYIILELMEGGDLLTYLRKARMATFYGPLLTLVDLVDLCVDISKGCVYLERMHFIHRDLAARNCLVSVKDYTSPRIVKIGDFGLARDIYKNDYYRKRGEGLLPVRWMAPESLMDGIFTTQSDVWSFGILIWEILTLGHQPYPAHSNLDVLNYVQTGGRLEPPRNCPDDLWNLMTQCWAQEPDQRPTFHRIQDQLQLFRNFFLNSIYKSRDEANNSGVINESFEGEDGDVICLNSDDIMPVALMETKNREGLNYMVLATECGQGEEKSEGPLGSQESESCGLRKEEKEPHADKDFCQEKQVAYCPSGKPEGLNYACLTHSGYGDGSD", "assay": "Inhibition of human recombinant ROS at 500 nM in presence of ATP by radiometric assay relative to control"}, "[8]": {"biological_target": "T3, Rhodopsin kinase GRK1 (Homo sapiens) (UniProt Q15835)", "T3 sequence (whole entry)": "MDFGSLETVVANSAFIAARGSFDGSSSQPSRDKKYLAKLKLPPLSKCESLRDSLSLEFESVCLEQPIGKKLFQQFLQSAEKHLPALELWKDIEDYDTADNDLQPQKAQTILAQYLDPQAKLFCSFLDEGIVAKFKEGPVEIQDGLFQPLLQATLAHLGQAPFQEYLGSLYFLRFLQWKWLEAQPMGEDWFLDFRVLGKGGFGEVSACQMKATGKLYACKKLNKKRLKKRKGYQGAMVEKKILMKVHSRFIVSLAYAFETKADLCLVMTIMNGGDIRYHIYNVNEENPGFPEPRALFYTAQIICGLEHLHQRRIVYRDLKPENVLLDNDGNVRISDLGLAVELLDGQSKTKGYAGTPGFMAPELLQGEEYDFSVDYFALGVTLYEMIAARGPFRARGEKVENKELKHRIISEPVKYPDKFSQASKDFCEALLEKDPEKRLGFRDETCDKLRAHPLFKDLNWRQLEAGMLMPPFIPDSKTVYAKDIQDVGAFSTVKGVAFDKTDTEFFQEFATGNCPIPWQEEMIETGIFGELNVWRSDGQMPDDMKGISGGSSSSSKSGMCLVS", "assay": "Inhibition of human recombinant RHOK at 15 nM related to control ULK1"}}, "data": [{"smiles": "O=C(N[C@@H](C1CC1)C(F)(F)F)c1cc(-c2cnn3cc(-c4ccc(F)cc4)cnc23)cs1", "values": [{"measurement": "fold change (FC)", "setting": "[1]", "result": 0}, {"measurement": "fold change (FC)", "setting": "[2]", "result": 0.11}, {"measurement": "fold change (FC)", "setting": "[3]", "result": 0}]}, {"smiles": "CNC(=O)c1ccccc1Oc1nc(Nc2cc(OC)c(OC)c(OC)c2)ncc1Br", "values": [{"measurement": "inhibition", "setting": "[4]", "result": 0, "unit": "%"}, {"measurement": "fold change (FC)", "setting": "[5]", "result": 0.16}, {"measurement": "fold change (FC)", "setting": "[6]", "result": 0.28}, {"measurement": "inhibition", "setting": "[7]", "result": 0, "unit": "%"}]}, {"smiles": "CC(C)[C@H](NC(=O)c1cc(-c2cnn3cc(-c4ccc(OCCN5CCCCC5)cc4)cnc23)cs1)C(F)(F)F", "values": [{"measurement": "fold change (FC)", "setting": "[8]", "result": 0}]}]}
